Data reported in publication PMC7026885, “Macrofilaricidal Benzimidazole–Benzoxaborole Hybrids as an Approach to the Treatment of River Blindness: Part 1. Amide Linked Analogs” (ACS Infectious Diseases, 2019).
Like-named read-outs stand apart in the source and are kept apart here.

Columns and labels:
[1] = MDR1-MDCK monolayer permeability assay; assay type: in vitro ADME; details: dog
Method: (§1) We characterized the in vitro ADME properties of 8a in preparation for evaluation of this compound in our primary in vivo model in gerbils. […] We were pleased to find that 8a was able to kill 100% of both male and female worms in the gerbil peritoneum when dosed subcutaneously at 100 mg/kg/day for 14 days as a suspension in a nonsolubilizing HEC/Tween vehicle. […] The subsequent assessment of the pharmacokinetics of 8a from these two dosing paradigms provided an interesting observation that we believe to be important in understanding the PK–PD requirements for achieving efficacy in this animal model. […] We had made the same observation in a positive control group using flubendazole at a subcutaneous dose of 10 mg/kg/day for 5 days in the nonsolubilizing HEC/Tween vehicle, namely, that plasma levels of flubendazole were maintained above the in vitro IC50 (4 nM) for over 42 days, consistent with data reported in the literature.[43] […] We next examined 8a in two additional in vivo models, the first where L3 B. pahangi larvae were injected into the peritoneum of gerbils and allowed to develop into adult worms[45] and a second where gerbils were naturally infected by the filarial nematode Litomosoides sigmodontis.[46],[47] In both of these models, 8a was administered subcutaneously at 100 mg/kg for 14 days or orally at 100 mg/kg for 28 days as a suspension. […] Additionally, when plasma obtained from treated animals at necropsy was analyzed for 8a, we observed an outcome similar to that observed in the adult implantation model, e.g., that measurable levels were present at this time point in the subcutaneous-dosed groups but not in the orally dosed groups, weeks after administration of the drug. In a final L. sigmodontis experiment with 8a, we dosed the compound subcutaneously at 300 mg/kg for 7 days as a suspension.

[2] = tested on: G2/M arrest (functional indicator of interaction with mammalian tubulin); test: mammalian G2/M arrest assay; assay type: cell-based; details: Table 1; read-out: G2/M arrest IC50
Method: (§2) The first three analogs from the benzimidazole 5-carboxylic acid, namely 7a (from 6-aminobenzoxaborole), 8a (from 6-aminomethyl-3,3-dimethylbenzoxaborole), and 8b (from 3-aminomethylbenzoxaborole), were prepared and tested in an Onchocerca volvulus L3 larval molting assay[34],[35] and a mammalian G2/M arrest assay[36] to evaluate antifilarial activity and selectivity, respectively (Table 1). O. volvulus is the causative agent of river blindness, and the L3 molting assay is the only widely available and reproducible assay of this filariid, the target of novel macrofilaricidal drugs.[34],[35] Other animal models (e.g., Brugia in gerbils) recapitulate aspects of lymphatic filariasis and are also used as surrogate screens for O. volvulus infections. Of the three compounds tested, 8a emerged as the most attractive compound on the basis of potency and selectivity.
Similarly, changing the point of attachment on the benzoxaborole core from 6- to 5- to afford 8d was also accompanied by increased potency in both the O. volvulus and G2/M arrest assays.

[3] = tested on: Onchocerca volvulus L3 larvae; test: Onchocerca volvulus L3 larval molting assay; assay type: cell-based; details: L3 molting assay, Table 1, read-out: O. volvulus IC50
Method: as §2
(§3) Plates were incubated at 37 °C in a 5% CO2 incubator for 6 days, then molting was assessed visually using an inverted microscope. Molting was determined in each well by counting the presence of fourth stage larvae (L4s) and empty casts of L3s.
(§4) The percent inhibition of molting was calculated based on the number of treated larvae that were able to molt in comparison to the number of control larvae that had successfully molted. IC50 values were calculated using GraphPad Prism v6.0
(§5) (http://www.graphpad.com). See Bullman et al., PLoS Negl. Trop.
(§6) Adult Brugia malayi transplantation in vivo model procedure.
(§7) Gerbils (Meriones unguiculatus) were infected by transplantation of 10 male and 10 female adult Brugia malayi into the peritoneal cavity. Gerbils were acclimated for 7 days prior to treatment. Animals were dosed based on their body weight prior to each dosing. Animals were administered their doses at the same time each day and receive standard rodent laboratory diet and water ad libitum. Gerbils were humanely euthanized at the conclusion of each study. Peritoneal counts of male and female adult B. malayi and visual condition of the peritoneum were recorded.
(§8) Brugia pahangi L3 injection in vivo model procedure 8.
(§9) Male gerbils (Meriones unguiculatus) approximately 6 weeks of age (50-60 g) were purchased from Charles Rivers (USA, Kingston K62 Gerbils) and infected by intraperitoneal injection with 200 Brugia pahangi third-stage larvae (L3) per animal
(§10) (Filariatech, Inc., Athens, GA). Gerbils were housed with no more than 5 animals per cage and maintained 9 months prior to treatment. All gerbils were dosed in accordance with their body weight determined prior to each dosing. Animals were […]

Brugia pahangi = Brugia pahangi L3 injection in vivo model in gerbils; details: B. pahangi, necropsy day 63, QD
Method: as §1, §3, §4, §5, §6, §7
Brugia pahangi L3 injection in vivo model procedure 8. […]
(Filariatech, Inc., Athens, GA). […] All gerbils were dosed in accordance with their body weight determined prior to each dosing. […]
The adult Brugia worms were recovered by opening the body cavity and washing the peritoneal cavity with 100 mL of phosphate buffered saline. Male and female worms were counted using a […]

B. malayi/pahangi worms = test: ex vivo B. malayi/pahangi assay; assay type: cell-based; details: short (<7 days) exposure of worms
[4] = Plasma drug concentrations in treated infected gerbils; assay type: in vivo; details: for concentration at 42 day: day 42; for concentration at 28 day: day 28
Method: as §1

Brugia malayi = test: Adult Brugia malayi transplantation in vivo model in gerbils; details: for adult worm reduction / animals with no worms: B. malayi, necropsy day 42, QD
Method: as §1, §3, §4, §5, §6, §7, §8, §9, §10

[5] = 100 mg/kg × 14 days, SC (suspension)
[6] = 100 mg/kg × 28 days, PO (suspension)
[7] = 150 mg/kg × 14 days, SC (solution)

COC(=O)Nc1nc2cc(C(=O)NCc3ccc4c(c3)B(O)OC4(C)C)ccc2[nH]1 [8a]
Papp A→B [1]: 8 nm/s | IC50 [2]: 13 µM | IC50 [3]: 0.3 µM | adult worm reduction (Brugia pahangi; [5]): 100% | adult worm reduction (Brugia pahangi; [6]): 24% | animals with no worms (Brugia pahangi; [6]): 0% | killing of worms after short exposure (B. malayi/pahangi worms): not effective in killing the worms | drug concentration at necropsy ([4]; B. malayi model, necropsy day 42, 100 mg/kg × 28 days, QD, PO (suspension)): <LOQ | drug concentration at necropsy ([4]; B. pahangi model, necropsy day 63, 100 mg/kg × 28 days, QD, PO (suspension)): <LOQ | concentration at 24 h after last dose ([4]; gerbil, plasma, po, 100 mg/kg, B. malayi model, 100 mg/kg × 28 days, QD, PO (suspension), read-out: drug concentration 24 h after last dose): 0.128 µM | concentration at 24 h after last dose ([4]; gerbil, plasma, po, 100 mg/kg, B. pahangi model, 100 mg/kg × 28 days, QD, PO (suspension), read-out: drug concentration 24 h after last dose): 0.13 µM | concentration at 42 day ([4]; gerbil, plasma, po, 100 mg/kg, L. sigmodontis model, 100 mg/kg × 28 days, QD, PO (suspension), read-out: drug concentration interim): 0.006 µM | concentration at 63 day (necropsy) ([4]; gerbil, plasma, po, 100 mg/kg, L. sigmodontis model, necropsy day 63, 100 mg/kg × 28 days, QD, PO (suspension)): 0.003 µM | concentration at 24 h after last dose ([4]; gerbil, plasma, po, 100 mg/kg, L. sigmodontis model, 100 mg/kg × 28 days, QD, PO (suspension), read-out: drug concentration 24 h after last dose): 0.21 µM | concentration at 28 day ([4]; gerbil, plasma, sc, 100 mg/kg, B. malayi model, 100 mg/kg × 14 days, QD, SC (suspension), read-out: drug concentration interim): 5.36 µM | concentration at 42 day (necropsy) ([4]; gerbil, plasma, sc, 100 mg/kg, B. malayi model, necropsy day 42, 100 mg/kg × 14 days, QD, SC (suspension), read-out: drug concentration at necropsy): 3.38 µM | concentration at 24 h after last dose ([4]; gerbil, plasma, sc, 100 mg/kg, B. malayi model, 100 mg/kg × 14 days, QD, SC (suspension), read-out: drug concentration 24 h after last dose): 4.1 µM | concentration at 63 day (necropsy) ([4]; gerbil, plasma, sc, 100 mg/kg, B. pahangi model, necropsy day 63, 100 mg/kg × 14 days, QD, SC (suspension)): 1.15 µM | concentration at 24 h after last dose ([4]; gerbil, plasma, sc, 100 mg/kg, B. pahangi model, 100 mg/kg × 14 days, QD, SC (suspension), read-out: drug concentration 24 h after last dose): 5.87 µM | concentration at 63 day (necropsy) ([4]; gerbil, plasma, sc, 100 mg/kg, L. sigmodontis model, necropsy day 63, 100 mg/kg × 14 days, QD, SC (suspension)): 0.069 µM | concentration at 24 h after last dose ([4]; gerbil, plasma, sc, 100 mg/kg, L. sigmodontis model, 100 mg/kg × 14 days, QD, SC (suspension), read-out: drug concentration 24 h after last dose): 9.3 µM | concentration at 28 day ([4]; gerbil, plasma, sc, 150 mg/kg, B. malayi model, 150 mg/kg × 14 days, QD, SC (solution), read-out: drug concentration interim): 0.07 µM | concentration at 42 day (necropsy) ([4]; gerbil, plasma, sc, 150 mg/kg, B. malayi model, necropsy day 42, 150 mg/kg × 14 days, QD, SC (solution), read-out: drug concentration at necropsy): 0.01 µM | concentration at 24 h after last dose ([4]; gerbil, plasma, sc, 150 mg/kg, B. malayi model, 150 mg/kg × 14 days, QD, SC (solution), read-out: drug concentration 24 h after last dose): 2.47 µM | concentration at 21 day ([4]; gerbil, plasma, sc, 300 mg/kg, L. sigmodontis model, day 21, 300 mg/kg × 7 days, QD, SC (suspension), read-out: drug concentration interim): 10.6 µM | concentration at 42 day ([4]; gerbil, plasma, sc, 300 mg/kg, L. sigmodontis model, 300 mg/kg × 7 days, QD, SC (suspension), read-out: drug concentration interim): 4.64 µM | concentration at 63 day (necropsy) ([4]; gerbil, plasma, sc, 300 mg/kg, L. sigmodontis model, necropsy day 63, 300 mg/kg × 7 days, QD, SC (suspension)): 0.48 µM | concentration at 24 h after last dose ([4]; gerbil, plasma, sc, 300 mg/kg, L. sigmodontis model, 300 mg/kg × 7 days, QD, SC (suspension), read-out: drug concentration 24 h after last dose): 7.85 µM | adult worm reduction (Brugia malayi; [5]): 100% | animals with no worms (Brugia malayi; [5]): 87.5% | adult worm reduction (Brugia malayi; [6]): 12.5% | animals with no worms (Brugia malayi; [6]): 0% | adult worm reduction (Brugia malayi; [7]): 83.3% | animals with no worms (Brugia malayi; [7]): 50% | in vivo efficacy (Brugia malayi; SC 150 mg/kg/day as a solution in DMSO/water vehicle): substantially reduced | kill of both male and female worms in the gerbil peritoneum (Brugia malayi; implanted adult B. malayi or B. pahangi, SC 100 mg/kg/day for 14 days, suspension in HEC/Tween vehicle): 100% | in vivo efficacy by the oral route (Brugia malayi; oral, 100 mg/kg/day for 28 days): not efficacious

COC(=O)Nc1nc2cc(C(=O)c3ccc(F)cc3)ccc2[nH]1 [compound 1, Flubendazole, reference compound]
Papp A→B ([1]; A-B, Table 1, read-out: MDCK-MDR1 Papp (A-B)): 156 nm/s | IC50 [2]: 0.67 µM | IC50 [3]: 0.004 µM | adult worm reduction (Brugia pahangi; 10 mg/kg × 5 days, SC): 100%/100% | animals with no worms (Brugia pahangi; 10 mg/kg × 5 days, SC): 100%/100% | killing of worms after short exposure (B. malayi/pahangi worms): not effective in killing the worms | concentration at 24 h after last dose ([4]; gerbil, in vivo, sc, 10 mg/kg, drug concentration 24 h after last dose): 0.178 µM | concentration at 42 day (necropsy) ([4]; gerbil, in vivo, sc, 10 mg/kg, drug concentration at necropsy): 0.043 µM | time plasma levels maintained above in vitro IC50 (4 nM) ([4]; gerbil, in vivo, sc, 10 mg/kg/day): over 42 days | adult worm reduction (Brugia malayi; 10 mg/kg × 5 days, SC): 100%/100% | animals with no worms (Brugia malayi; 10 mg/kg × 5 days, SC): 100%/100%
